One series has as its system Typhlodromus pyri. The series is described as follows: LR50; higher = less toxic. The following applies: not reported; mortality.
For the next series, the system named is Neomysis kadiakensis. The following applies: chronic/long-term; duration: 28 days; development.
The next series deals with Tagia sp. The following applies: chronic/long-term; reproduction.
The test system of a further series is Serinus canaria. The following applies: acute; oral; unspecified; mortality.
The next series has as its system Bibionidae. The following applies: chronic/long-term; duration: 28 days; development.
Another series concerns Hypoaspis aculeifer. The following applies: chronic/long-term; reproduction.
Another series has as its system Mus musculus. The following applies: acute; oral; M; mortality.
Another series relates to Anas platyrhynchos. The following applies: chronic/long-term.
In the next series the test system is Rattus norvegicus. The following applies: clinical signs.
Another series concerns Apis mellifera. The following applies: acute; oral; unspecified; mortality.

≈ marks a conversion by molar mass, not a printed value.

In turn, `CC1(C)C(C=C(Cl)Cl)[C@@H]1C(=O)O[C@@H](C#N)c1ccc(F)c(Oc2ccccc2)c1` (stereo partly drawn) [beta-Cyfluthrin] displayed an LR50 with Typhlodromus pyri of 0.0025 g/ha. In the series with Oncorhynchus mykiss (acute, mortality), the LC50 – broadly, the concentration lethal to half of the exposed cells or organisms – came out at 0.068 ng/mL (≈ 0.157 nM). In addition, the NOEC in the series on Oncorhynchus mykiss (chronic/long-term, duration: 58 days, growth) was 0.0042 µg/L; in the series with Neomysis kadiakensis it was 0.00041 µg/L; with Tagia sp., 0.825 mg/kg; in the series on Bibionidae, 0.0057 µg/L; in the series on Hypoaspis aculeifer it was 0.97 mg/kg. The LD50 came to 170 mg/kg-day with Serinus canaria, 91 mg/kg-day in the series with Mus musculus and 0.05 µg/piece in the series on Apis mellifera. Moreover, the NOAEL (usually the highest dose or exposure tested at which no adverse effect was seen) in the series with Anas platyrhynchos worked out at 2.6 mg/kg-day; in the series with Rattus norvegicus (reproduction developmental), 1.39 mg/kg-day; in the series on Rattus norvegicus (short-term, duration: 28 days), 1 mg/kg-day; in the series with Rattus norvegicus (subchronic, duration: 13 weeks, inhalation), 0.02 mg/kg-day.

For the origin of these results see EPA's ToxValDB 9.5 (doi:10.2903/j.efsa.2020.6058).
